Like-named read-outs stand apart in the source and are kept apart here.
Columns and labels:
MiaPaca-2 cells = assay: MiaPaca-2 cell proliferation assay (resazurin); format: cell-based; conditions: Homo sapiens, MIA PaCa-2, read-out: MiaPaca-2
Protocol: MiaPaca-2 cells (catalog #CRL-1420) are obtained from the American Type Culture Collect (ATTC, Manassas, VA). Briefly, cells were grown in DMVEM supplemented with […] fetal bovine serum (Invitrogen, Carlsbad, CA), 2.5% New Zealand sourced horse serum and 1% Penicillin/Streptomycin/L-Glutamine at 37° C., […], and […]. Cells are expanded until reaching […] at which point they are sub-cultured or harvested for assay use. For assays completed in 96-well plates, a serial dilution of test compound is dispensed into a 96-well black clear bottom plate in triplicate. Three thousand cells are added per well in 200 μL complete growth medium in the 96-well plate. Plates are incubated for 67 to 72 h at 37° C., 5% CO2, and 95% humidity. At the end of the incubation, 40 μL of a […] solution of resazurin (Sigma, St. Louis, MO) in PBS is added to each well of the plate and plates are incubated for an additional 5 to 6 h at 37° C., 5% CO2, and 95% humidity. For 384-well assays, a threefold, 8-point serial dilution of compound was spotted column wise into a 384 well black, clear bottom, tissue culture treated plate using the Beckman Coulter Echo 650. Likewise, a threefold, 8-point serial dilution of cobimetinib was spotted row wise into the 384 well black, clear bottom plate containing compound. DMSO concentration was constant across all wells at 0.4%. Seven hundred fifty cells are added per well in 50 μL complete growth medium in each 384-well plate. Plates are incubated for 67 to 72 h at 37° C., 5% CO2, and 95% humidity. At the end of the incubation, 10 μL of a 440 μM solution of resazurin (Sigma, St. Louis, MO) in PBS is added to each well of the plate and plates are incubated for an additional 4 to 6 h at 37° C., 5% CO2, and 95% humidity. Plates are read on a Synergy2 or equivalent reader (Biotek, Winooski VT) using an excitation of 540 nm and an emission of 600 nm. Data is analyzed using Prism software (Graphpad, San Diego, CA) to calculate IC50 values.

HCT-116 cells = assay: HCT-116 cell proliferation assay (resazurin); format: cell-based; conditions: Homo sapiens, read-out: HCT-116
Protocol: HCT-116 cells (catalog #CCL-247) are obtained from the American Type Culture Collect (ATCC, Manassas, VA). Briefly, cells are grown in McCoy's 5A supplemented with 10% characterized fetal bovine serum (Invitrogen, Carlsbad, CA) and 1% Penicillin/Streptomycin/L-Glutamine at 37° C., 5% CO2, and 95% humidity. Cells are expanded until reaching 70-95% confluency at which point they are sub-cultured or harvested for assay use. A serial dilution of test compound is dispensed into a 384-well black clear bottom plate in triplicate. 375 cells are added per well in 50 μL complete growth medium in the 384-well plate. Plates are incubated for 67 to 72 h at 37° C., 5% CO2, and 95% humidity. At the end of the incubation, 40 μL of a […] solution of resazurin (Sigma, St. Louis, MO) in PBS is added to each well of the plate and plates are incubated for an additional 4 to 5 h at 37° C., 5% CO2, and 95% humidity. Plates are read on a Synergy2 or equivalent reader (Biotek, Winooski, VT) using an excitation of 540 nm and an emission of 600 nm. Data is analyzed using Prism software (Graphpad, San Diego, CA) to calculate IC50 values.

HPAF-II cells = assay: HPAF-II cell proliferation assay (resazurin); format: cell-based; conditions: Homo sapiens, read-out: HPAF-II
Protocol: (§1) HPAF-II cells (catalog #CRL-1997) are obtained from the American Type Culture Collect (ATCC, Manassas, VA). Briefly, cells are grown in Minimum Essential Media supplemented with 10% characterized fetal bovine serum (Invitrogen, Carlsbad, CA) and 1% Penicillin/Streptomycin/L-Glutamine at 37° C., 5% CO2, and 95% humidity. Cells are expanded until reaching 70-95% confluency at which point they are sub-cultured or harvested for assay use. A serial dilution of test compound is dispensed into a 384-well black clear bottom plate in triplicate. 750 cells are added per well in 50 μL complete growth medium in the 384-well plate. Plates are incubated for 115 to 120 h at 37° C., 5% CO2, and 95% humidity. At the end of the incubation, 40 μL of a […] solution of resazurin (Sigma, St. Louis, MO) in PBS is added to each well of the plate and plates are incubated for an additional 18 to 24 h at 37° C., 5% CO2, and 95% humidity. Plates are read on a Synergy2 or equivalent reader (Biotek, Winooski, VT) using an excitation of 540 nm and an emission of 600 nm. Data is analyzed using Prism software (Graphpad, San Diego, CA) to calculate IC50 values.

Porcine Brain Tubulin = molecular target: T1, Porcine Brain Tubulin (Sus scrofa, UniProt P02550+P02554); assay: Biochemical tubulin polymerization assay; conditions: Table 5; read-out: Tubulin Biochem
T1 construct: Porcine Brain Tubulin (T240); purchased Cytoskeleton, Inc T240; BK011P; host or cells: porcine brain
T1 sequence (P02550 whole entry): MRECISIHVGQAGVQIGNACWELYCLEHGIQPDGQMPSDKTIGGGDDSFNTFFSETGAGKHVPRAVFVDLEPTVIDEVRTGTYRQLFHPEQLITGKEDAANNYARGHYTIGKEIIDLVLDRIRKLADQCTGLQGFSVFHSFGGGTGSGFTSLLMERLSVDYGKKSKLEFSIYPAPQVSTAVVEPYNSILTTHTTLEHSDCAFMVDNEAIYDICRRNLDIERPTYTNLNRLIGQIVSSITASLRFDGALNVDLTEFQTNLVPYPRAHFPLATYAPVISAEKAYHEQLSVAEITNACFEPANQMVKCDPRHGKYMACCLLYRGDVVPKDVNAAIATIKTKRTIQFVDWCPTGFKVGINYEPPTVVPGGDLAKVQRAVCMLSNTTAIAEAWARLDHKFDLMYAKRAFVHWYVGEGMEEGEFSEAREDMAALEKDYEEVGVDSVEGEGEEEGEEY
T1 sequence (P02554 whole entry): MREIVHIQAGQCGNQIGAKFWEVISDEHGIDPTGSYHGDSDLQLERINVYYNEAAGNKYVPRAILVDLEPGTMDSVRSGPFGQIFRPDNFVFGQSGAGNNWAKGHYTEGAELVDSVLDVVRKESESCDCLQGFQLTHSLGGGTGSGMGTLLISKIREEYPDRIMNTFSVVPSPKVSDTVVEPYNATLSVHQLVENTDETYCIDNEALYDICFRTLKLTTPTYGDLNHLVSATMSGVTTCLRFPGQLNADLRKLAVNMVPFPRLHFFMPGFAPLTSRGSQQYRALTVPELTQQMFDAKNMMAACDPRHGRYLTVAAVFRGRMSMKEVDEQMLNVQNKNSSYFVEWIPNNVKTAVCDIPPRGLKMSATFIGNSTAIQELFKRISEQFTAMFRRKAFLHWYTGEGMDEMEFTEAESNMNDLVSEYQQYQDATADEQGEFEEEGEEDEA

B-Raf kinase = molecular target: T2, B-Raf kinase (Homo sapiens, UniProt P15056); assay: Biochemical assay for B-Raf (coupled pyruvate kinase/lactate dehydrogenase); conditions: read-out: BRAF
T2 construct: purchased Sigma
T2 sequence (P15056 416-766): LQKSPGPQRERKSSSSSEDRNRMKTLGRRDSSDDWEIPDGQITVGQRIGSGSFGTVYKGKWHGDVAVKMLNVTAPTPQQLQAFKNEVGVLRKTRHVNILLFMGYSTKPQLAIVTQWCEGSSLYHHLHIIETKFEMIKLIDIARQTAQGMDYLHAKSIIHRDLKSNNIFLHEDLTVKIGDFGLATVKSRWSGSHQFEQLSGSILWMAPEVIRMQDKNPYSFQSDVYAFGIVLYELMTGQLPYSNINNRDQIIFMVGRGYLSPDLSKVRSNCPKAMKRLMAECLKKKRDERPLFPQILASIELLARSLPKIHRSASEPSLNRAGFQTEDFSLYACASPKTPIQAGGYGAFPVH

C-Raf kinase = molecular target: T3, C-Raf kinase (Homo sapiens, UniProt P04049, Y340D/Y341D); assay: Biochemical assay for C-Raf (coupled pyruvate kinase/lactate dehydrogenase); conditions: read-out: CRAF
T3 construct: C-Raf residues 306-end; Y340D, Y341D with N-; purchased Sigma
T3 sequence (P04049 307-648 Y340D/Y341D): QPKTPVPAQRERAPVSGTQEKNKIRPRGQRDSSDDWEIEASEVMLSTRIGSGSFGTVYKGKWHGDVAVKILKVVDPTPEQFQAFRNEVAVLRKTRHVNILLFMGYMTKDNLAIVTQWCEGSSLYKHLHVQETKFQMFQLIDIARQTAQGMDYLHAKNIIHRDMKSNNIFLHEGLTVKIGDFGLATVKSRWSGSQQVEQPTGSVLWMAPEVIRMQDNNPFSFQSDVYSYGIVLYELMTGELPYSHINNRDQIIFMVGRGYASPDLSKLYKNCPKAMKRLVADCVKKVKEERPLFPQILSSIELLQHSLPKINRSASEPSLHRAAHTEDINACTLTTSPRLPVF

Pa16c cells = assay: Pa16c cell proliferation assay (resazurin); format: cell-based; conditions: Table 2, inhibition of cell proliferation
Protocol: as §1, with “Pa16c” for “HPAF-II”, “cells” for “cells (catalog #CRL-1997)”, “Dr. Channing Der, University of North Carolina at Chapel Hill.” for “the American Type Culture Collect (ATCC, Manassas, VA).”, “Dulbecco's Modified Eagle Medium” for “Minimum Essential Media”, “67” for “115”, “72” for “120”

[1] = tested on: tubulin polymerization in HCT-116 cells; assay: Cellular tubulin polymerization assay (pellet/supernatant a-tubulin, HCT-116 cells); format: cell-based; conditions: Table 5, HCT-116 cells; read-out: Tubulin Cellular
Protocol: HCT-116 cells (catalog #CCL-247) are obtained from the American Type Culture Collect (ATCC, Manassas, VA). Briefly, cells are grown in McCoy's 5A supplemented with 10% characterized fetal bovine serum (Invitrogen, Carlsbad, CA) and 1% Penicillin/Streptomycin/L-Glutamine at 37° C., 5% CO2, and 95% humidity. Cells are expanded until reaching 70-95% confluency at which point they are sub-cultured or harvested for assay use. 450000 cells are added per well in 1500 μL complete growth medium in a tissue culture treated, 12-well plate. Plates are incubated for 18 to 24 h at 37° C., 5% CO2, and 95% humidity. At the end of the incubation, 2000 μL of base culture media is added to each well, followed by a serial dilution of compound. Plates are incubated for an additional 1 h at 37° C., 5% CO2, and 95% humidity. Lysates are generated by the addition of 100 μL Lysis and Microtubule Stabilization Buffer 1 (LMS01, Cytoskeleton Inc, Denver, CO) supplemented with GTP (BST06, Cytoskeleton Inc), ATP (BSA04, Cytoskeleton Inc), and Protease Inhibitor Cocktail Stock (PIC02, Cytoskeleton Inc). Cells are scraped off wells using a rubber cell scraper and collected in a clean 96-well plate. Lysates are centrifuged at 1000×g, 37° C. for 10 min and supernatant fraction is placed into an additional 96-well plate. The remaining pellet fraction is reconstituted in 100 μL LMS01 buffer and sonicated for 10 min. Pellet and Supernatant fractions are probed for a-tubulin via western blot analysis on the Jess System or equivalent (Bio-techne, Minneapolis, MN). Data is analyzed using Prism software (Graphpad, San Diego, CA) to calculate IC50 values.

[2] = Table 1, inhibition of biochemical activity
[3] = Table 2, inhibition of cell proliferation

| IC50 (MiaPaca-2 cells; Table 5) | IC50 (HCT-116 cells; Table 5) | IC50 (Porcine Brain Tubulin) | IC50 (B-Raf kinase; [2]) | IC50 (C-Raf kinase; [2]) | IC50 (MiaPaca-2 cells; [3]) | IC50 (HCT-116 cells; [3]) | IC50 (B-Raf kinase; Table 5) | IC50 (C-Raf kinase; Table 5) | SMILES | IC50 (HPAF-II cells; Table 5) | IC50 (HPAF-II cells; [3]) | IC50 (Pa16c cells) | IC50 [1] |
| --- | --- | --- | --- | --- | --- | --- | --- | --- | --- | --- | --- | --- | --- |
| 1000 to 10000 nM | 1000 to 10000 nM | > 100000 nM |  |  |  |  |  |  | CC(C)(C)c1nc(-c2cccc(NS(=O)(=O)c3c(F)cccc3F)c2F)c(-c2ccnc(N)n2)s1 [Dabrafenib, reference compound] | 1000 to 10000 nM |  |  |  |
|  |  |  | 100 to 500 nM | 100 to 500 nM | 1000 to 10000 nM | 500 to 1000 nM |  |  | CNC(=O)c1cc(-c2cncc(-c3cc(NC(=O)c4cc(C#N)cnn4)ccc3C)c2)ccn1 [Example 46] |  | 1000 to 10000 nM | 1000 to 10000 nM |  |
|  |  |  | < 100 nM | < 100 nM | < 100 nM | < 100 nM |  |  | CNC(=O)c1cc(-c2cc(-c3cc(NC(=O)c4cc(C(F)(F)F)cnn4)ccc3C)cc(NC)n2)ccn1 [Example 47] |  | < 100 nM | < 100 nM |  |
|  |  |  | < 100 nM | < 100 nM | 500 to 1000 nM | 100 to 500 nM |  |  | CNC(=O)c1cc(-c2cc(-c3cc(NC(=O)c4cc(C(F)(F)F)cnn4)ccc3C)cc(N)n2)ccn1 [Example 48] |  | 100 to 500 nM | 1000 to 10000 nM |  |
|  |  |  | < 100 nM | < 100 nM | 500 to 1000 nM | 500 to 1000 nM |  |  | CNC(=O)c1cc(-c2cc(-c3cc(NC(=O)c4cc(C#N)cnn4)ccc3C)cc(OCCO)n2)ccn1 [Example 49] |  | 500 to 1000 nM | < 100 nM |  |
| 1000 to 10000 nM | 1000 to 10000 nM | > 100000 nM |  |  |  |  | < 100 nM | < 100 nM | Cc1ccc(NC(=O)c2ccnc(C(F)(F)F)c2)cc1-c1cc(OCCO)nc(N2CCOCC2)c1 [Naporafenib, reference compound] | 1000 to 10000 nM |  |  |  |

| SMILES | IC50 (MiaPaca-2 cells; Table 5) | IC50 (HCT-116 cells; Table 5) | IC50 (Porcine Brain Tubulin) | IC50 (B-Raf kinase; [2]) | IC50 (C-Raf kinase; [2]) | IC50 (MiaPaca-2 cells; [3]) | IC50 (HCT-116 cells; [3]) | IC50 (B-Raf kinase; Table 5) | IC50 (C-Raf kinase; Table 5) | IC50 (HPAF-II cells; Table 5) | IC50 (HPAF-II cells; [3]) | IC50 (Pa16c cells) | IC50 [1] |
| --- | --- | --- | --- | --- | --- | --- | --- | --- | --- | --- | --- | --- | --- |
| Cc1ccc(NC(=O)N2CC[C@@H](CC(F)(F)F)C2)cc1-c1cc(N[C@H](C)CO)nc(N2CCOCC2)c1 [Exarafenib, reference compound] | 1000 to 10000 nM | 500 to 1000 nM |  |  |  |  |  |  |  | 1000 to 10000 nM |  |  | 1000 to 10000 nM |

Reference: patent publication US20260176260A1, “DUAL RAF AND TUBULIN INHIBITORS AND METHODS OF USE THEREOF” (Deciphera Pharmaceuticals, LLC, priority 2023, published 2026)
